Test results taken from ChEMBL document CHEMBL1201862, “PubChem BioAssay data set” (2004).
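Five compound concentrations were applied to cells in 96-well plates for 48 hours; endpoints were derived by simple linear interpolation of the resulting dose-response curve. GI50 = concentration required for 50% inhibition of growth.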 Calls of active or inactive are those of the source. Rule as the data show it: active = GI50 up to about 1.1 µM and inactive = higher.

Experiments:
Experiment in all cases: NCI tumour cell line growth inhibition, 48 h
CCRF-CEM = test system: CCRF-CEM
SR = test system: SR
UACC-62 = test system: UACC-62
SK-MEL-28 = test system: SK-MEL-28
Malme-3M = test system: Malme-3M
Hs-578T = test system: Hs-578T
SNB-75 = test system: SNB-75
A549 = test system: A549
UACC-257 = test system: UACC-257
SW-620 = test system: SW-620
COLO 205 = test system: COLO 205
M14 = test system: M14
NCI-H23 = test system: NCI-H23
ACHN = test system: ACHN
IGROV-1 = test system: IGROV-1
OVCAR-3 = test system: OVCAR-3
UO-31 = test system: UO-31
SF-268 = test system: SF-268
MDA-N = test system: MDA-N
RXF 393 = test system: RXF 393

| SMILES | GI50 (CCRF-CEM) | GI50 (SR) | GI50 (UACC-62) | GI50 (SK-MEL-28) | GI50 (Malme-3M) | GI50 (Hs-578T) | GI50 (SNB-75) | GI50 (A549) | GI50 (UACC-257) | GI50 (SW-620) | GI50 (COLO 205) | GI50 (M14) | GI50 (NCI-H23) | GI50 (ACHN) | GI50 (IGROV-1) | GI50 (OVCAR-3) | GI50 (UO-31) | GI50 (SF-268) | GI50 (MDA-N) | GI50 (RXF 393) |
| --- | --- | --- | --- | --- | --- | --- | --- | --- | --- | --- | --- | --- | --- | --- | --- | --- | --- | --- | --- | --- |
| Nc1ccc2c(SCCSc3c4ccccc4nc4cc(N)ccc34)c3ccccc3nc2c1 | 38.5 µM (inactive) | 23 µM (inactive) | > 100 µM (inactive) | > 100 µM (inactive) | > 100 µM (inactive) | > 100 µM (inactive) | > 100 µM (inactive) | > 100 µM (inactive) | > 100 µM (inactive) | > 100 µM (inactive) | > 100 µM (inactive) | > 100 µM (inactive) | 94.2 µM (inactive) | 55.7 µM (inactive) | > 100 µM (inactive) | > 100 µM (inactive) | > 100 µM (inactive) | > 100 µM (inactive) | – | – |
| CCC1C(c2cc(OC)c(OC)c(OC)c2)c2cc3c(cc2OC1N1CCOCC1)OCO3 (stereo not given) | – | 3.18 µM (inactive) | 6.08 µM (inactive) | – | 13.2 µM (inactive) | 3.02 µM (inactive) | 9.4 µM (inactive) | 4.36 µM (inactive) | 14.6 µM (inactive) | 1.98 µM (inactive) | 4.22 µM (inactive) | 4.12 µM (inactive) | – | 3.99 µM (inactive) | 3.9 µM (inactive) | 4.31 µM (inactive) | 3.88 µM (inactive) | 10.5 µM (inactive) | 0.977 µM (active) | – |
| Cc1ccc(S(=O)(=O)NC(=O)C2=C3SCCN3C(=O)N(S(=O)(=O)c3ccc(C)cc3)C2c2ccccc2)cc1 (stereo not given) | 19.4 µM (inactive) | 31.4 µM (inactive) | 37.3 µM (inactive) | 50.2 µM (inactive) | 40.6 µM (inactive) | 48.4 µM (inactive) | 43.4 µM (inactive) | > 100 µM (inactive) | 78.5 µM (inactive) | 47.3 µM (inactive) | 19.9 µM (inactive) | 61 µM (inactive) | 40.6 µM (inactive) | > 100 µM (inactive) | 46.9 µM (inactive) | 20 µM (inactive) | > 100 µM (inactive) | 32.3 µM (inactive) | – | 25.1 µM (inactive) |
| O=C(CSCC(=O)N/N=C/c1cccc(OCc2ccccc2)c1)N/N=C/c1cccc(OCc2ccccc2)c1 | 24.4 µM (inactive) | – | > 92.3 µM (inactive) | > 100 µM (inactive) | 45.5 µM (inactive) | > 100 µM (inactive) | > 100 µM (inactive) | 27.9 µM (inactive) | 32.3 µM (inactive) | > 87.1 µM (inactive) | – | 37.5 µM (inactive) | 36.6 µM (inactive) | 32.9 µM (inactive) | > 70.8 µM (inactive) | 39.5 µM (inactive) | 46.9 µM (inactive) | > 80.2 µM (inactive) | – | > 69.7 µM (inactive) |
| CC1=NN(c2ccccc2)C(=O)C1C(=O)C(=O)Nc1ccc(C)cc1C (stereo not given) | > 100 µM (inactive) | > 100 µM (inactive) | > 100 µM (inactive) | > 100 µM (inactive) | > 100 µM (inactive) | > 100 µM (inactive) | > 100 µM (inactive) | > 100 µM (inactive) | > 100 µM (inactive) | > 100 µM (inactive) | > 100 µM (inactive) | > 100 µM (inactive) | > 100 µM (inactive) | > 100 µM (inactive) | > 100 µM (inactive) | > 100 µM (inactive) | > 100 µM (inactive) | > 100 µM (inactive) | – | > 100 µM (inactive) |
| CC(C)(C)c1cc2c(c(C(C)(C)C)c1O)CC(=O)O2 | 29.6 µM (inactive) | – | 23.2 µM (inactive) | 40.6 µM (inactive) | – | 26.4 µM (inactive) | – | 31.2 µM (inactive) | 24.6 µM (inactive) | 42.4 µM (inactive) | 22.2 µM (inactive) | 25.8 µM (inactive) | 19.8 µM (inactive) | 22.8 µM (inactive) | 40.1 µM (inactive) | 16.6 µM (inactive) | 26.3 µM (inactive) | 44.4 µM (inactive) | 34.9 µM (inactive) | 22.1 µM (inactive) |
| N#Cc1ccc2oc3ccc(C#N)cc3c(=O)c2c1 | 31.8 µM (inactive) | 41.6 µM (inactive) | 19 µM (inactive) | 18.5 µM (inactive) | 24.2 µM (inactive) | – | 31.7 µM (inactive) | 23 µM (inactive) | > 100 µM (inactive) | 51.5 µM (inactive) | 26.7 µM (inactive) | > 100 µM (inactive) | 21.3 µM (inactive) | > 100 µM (inactive) | 32 µM (inactive) | > 10 µM (inactive) | > 100 µM (inactive) | 35.9 µM (inactive) | 16.4 µM (inactive) | 18.3 µM (inactive) |
| CCCCCCOc1ccc(NC2=C(Cl)C(=O)c3cccnc3C2=O)cc1 | 1.65 µM (inactive) | – | 1.07 µM (active) | 2.13 µM (inactive) | 2.3 µM (inactive) | 8.02 µM (inactive) | 1 µM (active) | 1.95 µM (inactive) | 2.25 µM (inactive) | 1.54 µM (inactive) | – | 1.3 µM (inactive) | 1.74 µM (inactive) | 2.1 µM (inactive) | 1.88 µM (inactive) | 1.35 µM (inactive) | 1.14 µM (inactive) | 2.11 µM (inactive) | 1.59 µM (inactive) | 1.37 µM (inactive) |
| O=C1c2ccccc2N1C(=O)c1ccccc1[N+](=O)[O-] | 48.9 µM (inactive) | > 100 µM (inactive) | > 100 µM (inactive) | > 100 µM (inactive) | 29.6 µM (inactive) | 56.1 µM (inactive) | 53.3 µM (inactive) | 45.2 µM (inactive) | > 100 µM (inactive) | > 100 µM (inactive) | 61.1 µM (inactive) | 59.7 µM (inactive) | > 100 µM (inactive) | 78.9 µM (inactive) | > 100 µM (inactive) | 18.6 µM (inactive) | > 100 µM (inactive) | 39.9 µM (inactive) | 74.6 µM (inactive) | – |
| Cc1cc(O)nc(NN2C(Cl)C(=O)C2c2ccc(O)cc2)n1 (stereo not given) | 2.81 µM (inactive) | 3.08 µM (inactive) | 5.04 µM (inactive) | 11.1 µM (inactive) | 14.4 µM (inactive) | 14.5 µM (inactive) | 1.87 µM (inactive) | 13.6 µM (inactive) | 13.1 µM (inactive) | 5.21 µM (inactive) | 18.7 µM (inactive) | 11.4 µM (inactive) | 9.62 µM (inactive) | 8.07 µM (inactive) | 7.71 µM (inactive) | 6.28 µM (inactive) | 10.5 µM (inactive) | 8.45 µM (inactive) | – | 4.26 µM (inactive) |
| COC(=O)C1=CCC[C@H]2[C@@]1(COC(C)=O)CC[C@@H](C)[C@]2(C)CC(=O)c1ccoc1 | 10.3 µM (inactive) | – | 7.93 µM (inactive) | – | – | 13.4 µM (inactive) | 12.7 µM (inactive) | 19 µM (inactive) | 18.7 µM (inactive) | 21.1 µM (inactive) | 12.2 µM (inactive) | 23.5 µM (inactive) | 13.8 µM (inactive) | 16.9 µM (inactive) | 15.9 µM (inactive) | 15.7 µM (inactive) | 13.4 µM (inactive) | 27.2 µM (inactive) | 16.5 µM (inactive) | 19.6 µM (inactive) |
| COc1ccc2c(c1)c1c(n2CCN(C)C)-c2cccc(OC)c2CC1 | 2.65 µM (inactive) | – | 15.2 µM (inactive) | 14.2 µM (inactive) | – | 16.3 µM (inactive) | 5.43 µM (inactive) | 12.3 µM (inactive) | 17.3 µM (inactive) | > 10 µM (inactive) | 6.62 µM (inactive) | 11 µM (inactive) | 18.8 µM (inactive) | 17.9 µM (inactive) | 18.5 µM (inactive) | 16.1 µM (inactive) | 14.9 µM (inactive) | 17.9 µM (inactive) | 11 µM (inactive) | – |
| CCOC(=O)C1=C(Nc2cccc(OC)c2)OCC1=O | > 100 µM (inactive) | > 100 µM (inactive) | > 100 µM (inactive) | > 100 µM (inactive) | – | > 100 µM (inactive) | > 100 µM (inactive) | – | > 100 µM (inactive) | > 100 µM (inactive) | > 100 µM (inactive) | > 100 µM (inactive) | > 100 µM (inactive) | > 100 µM (inactive) | > 100 µM (inactive) | – | > 100 µM (inactive) | > 100 µM (inactive) | – | > 100 µM (inactive) |
| OCc1c2c(cc3c1CC1(C3)Cc3cc4c(c(CO)c3C1)CCC4)CCC2 | 8 µM (inactive) | – | 16.7 µM (inactive) | – | 15.3 µM (inactive) | 17.5 µM (inactive) | – | 14.4 µM (inactive) | 11.6 µM (inactive) | – | 24.3 µM (inactive) | 18 µM (inactive) | 13.1 µM (inactive) | 10.3 µM (inactive) | 15.5 µM (inactive) | 14.4 µM (inactive) | 1.67 µM (inactive) | – | 15.1 µM (inactive) | 16.6 µM (inactive) |
| Cc1c2c(c(C)n1-c1ccccc1)C(=O)N(CCN1CCN(c3cccc(C(F)(F)F)c3)CC1)C2=O | – | – | > 100 µM (inactive) | – | > 100 µM (inactive) | > 100 µM (inactive) | > 100 µM (inactive) | 46.6 µM (inactive) | 7.67 µM (inactive) | – | 17.1 µM (inactive) | > 100 µM (inactive) | 7.94 µM (inactive) | > 100 µM (inactive) | > 100 µM (inactive) | > 100 µM (inactive) | 48.6 µM (inactive) | > 100 µM (inactive) | 71.1 µM (inactive) | > 100 µM (inactive) |
| COc1cc2c3c4[n+](cc2c(OC)c1OC)CCC4CCC3 (stereo not given) | > 62.1 µM (inactive) | – | > 100 µM (inactive) | > 100 µM (inactive) | 20.4 µM (inactive) | > 100 µM (inactive) | – | > 100 µM (inactive) | 57.3 µM (inactive) | > 100 µM (inactive) | 34.7 µM (inactive) | > 100 µM (inactive) | 98.9 µM (inactive) | > 100 µM (inactive) | > 100 µM (inactive) | 46.9 µM (inactive) | > 100 µM (inactive) | > 100 µM (inactive) | > 100 µM (inactive) | > 84.3 µM (inactive) |
